Results on 12 molecules are retold here after ChEMBL document CHEMBL1146010, “Synthesis and in vitro antimycobacterial activity of N1-nicotinoyl-3-(4'-hydroxy-3'-methyl phenyl)-5-[(sub)phenyl]-2-pyrazolines” (2006).

This test deals with Mycobacterium tuberculosis. The test can be described thus: Antimycobacterial activity against isoniazid-resistant Mycobacterium tuberculosis by agar dilution method. In kind it is functional. Background: In agar dilution the substance is mixed into plates at graded concentrations.

≈ marks a conversion by molar mass, not a printed value.

For orientation: MIC means the least concentration at which growth counts as inhibited. `Cc1cc(C2=NN(C(=O)c3ccncc3)C(c3cccc([N+](=O)[O-])c3)C2)ccc1O` (configuration not stated) came in with a minimum inhibitory concentration (MIC) of 7.75 µM (≈ 3.12 µg/mL).
As for `COc1ccc(C2CC(c3ccc(O)c(C)c3)=NN2C(=O)c2ccncc2)c(OC)c1OC` (configuration not stated), the figure is 0.87 µM (≈ 0.389 µg/mL).
Then `Cc1cc(C2=NN(C(=O)c3ccncc3)C(c3ccco3)C2)ccc1O` (configuration not stated), with 0.58 µM (≈ 0.201 µg/mL); and `Cc1cc(C2=NN(C(=O)c3ccncc3)C(c3c(Cl)cccc3Cl)C2)ccc1O` (configuration not stated), with 0.23 µM (≈ 0.098 µg/mL).
The molecule `Cc1cc(C2=NN(C(=O)c3ccncc3)C(c3ccc(Cl)cc3)C2)ccc1O` (configuration not stated) gave a minimal inhibitory concentration (MIC) of 3.98 µM (≈ 1.56 µg/mL).
On to `COc1ccc(C2CC(c3ccc(O)c(C)c3)=NN2C(=O)c2ccncc2)cc1` (configuration not stated), for which 8.05 µM (≈ 3.12 µg/mL) was the least that counted as inhibitory (MIC).
As for `Cc1cc(C2=NN(C(=O)c3ccncc3)C(c3ccccc3)C2)ccc1O` (configuration not stated), the figure is 4.36 µM (≈ 1.56 µg/mL).
Then `COc1ccc(C2CC(c3ccc(O)c(C)c3)=NN2C(=O)c2ccncc2)cc1OC` (configuration not stated), with 0.93 µM (≈ 0.388 µg/mL); and `Cc1cc(C2=NN(C(=O)c3ccncc3)C(c3ccc(N(C)C)cc3)C2)ccc1O` (configuration not stated), with 1.95 µM (≈ 0.781 µg/mL); and `Cc1cc(C2=NN(C(=O)c3ccncc3)C(c3ccccc3Cl)C2)ccc1O` (configuration not stated), with 0.26 µM (≈ 0.102 µg/mL).
Then `Cc1cc(C2=NN(C(=O)c3ccncc3)C(c3ccc(F)cc3)C2)ccc1O` (configuration not stated), with 0.54 µM (≈ 0.203 µg/mL).
Consider `NNC(=O)c1ccncc1` [ISONIAZID], for which the MIC amounted to 11.4 µM (≈ 1.56 µg/mL).
